Test results taken from patent US20070207204A1, “Dosage Form for Time-Varying Patterns of Drug Delivery” (ALZA CORPORATION, priority 2001, published 2007).

assay: Osmotic pressure of saturated solutions of osmotically effective compounds and mixtures (vapor pressure osmometer); assay type: physicochemical; conditions: saturated solution in water at 37° C.; Model 302B Vapor Pressure Osmometer
Text: The term “osmagent”, as used herein, includes osmotically effective solutes, osmotically effective compounds, and osmotic agents. […] Osmotically effective compounds useful for the present purpose include magnesium sulfate, magnesium chloride, sodium chloride, lithium chloride, potassium sulfate, sodium carbonate, sodium sulfite, lithium sulfate, potassium chloride, calcium bicarbonate, sodium sulfate, calcium sulfate, potassium acid phosphate, calcium lactate, d-mannitol, urea, inositol, magnesium succinate, tartaric acid, carbohydrates such as raffinose, sucrose, glucose, maltodextrins, α-d-lactose monohydrate, and mixtures thereof. The osmotically effective compound in layer 18 can be in any physical form such as particle, crystal, pellet, tablet, strip, ground, pulverized, film, or granule. The osmotic pressure of saturated solutions of various osmotically effective compounds and for mixtures of osmotic compounds at 37° C. in water, is listed in Table 1. The osmotic pressure can be measured by a commercially available osmometer that measures the vapor pressure difference between pure water and the solution to be analyzed. According to standard thermodynamic principles, the vapor pressure difference is converted into osmotic pressure. In Table 1, osmotic pressures of from 20 atm to 500 atm are set forth. However, the invention includes the use of lower osmotic pressures, and higher osmotic pressures than from 20 atm to 500 atm. The osmometer used for the present measurements is Model 302B, Vapor Pressure Osmometer, manufactured by the Hewlett Packard Co., Avondale, Pa.

| SMILES | OSMOTIC PRESSURE (atm) |
| --- | --- |
| O=C(CO)[C@@H](O)[C@H](O)[C@H](O)CO [Fructose] | 355 atm |
| OC[C@@H](O)[C@@H](O)[C@H](O)[C@H](O)CO [Mannitol] | 38 atm |
| [Cl-].[K+] [Potassium Chloride] | 245 atm |
| O=S(=O)([O-])[O-].[K+].[K+] [Potassium Sulfate] | 39 atm |
| [Cl-].[Na+] [Sodium Chloride] | 356 atm |
| O.O.O.O.O.O.O.O=P([O-])([O-])O.[Na+].[Na+] [Sodium Phosphate Dibasic-7H20] | 31 atm |
| O.O.O.O.O.O.O.O.O.O.O.O.O=P([O-])([O-])O.[Na+].[Na+] [Sodium Phosphate Dibasic-12H20] | 31 atm |
| O=P([O-])([O-])O.[Na+].[Na+] [Sodium Phosphate Dibasic-Anhydrous] | 29 atm |
| O.O=P([O-])(O)O.[Na+] [Sodium Phosphate Monobasic-H20] | 28 atm |
| O.O.O.O.O.O.O.O.O.O.O.O.O=P([O-])([O-])[O-].[Na+].[Na+].[Na+] [Sodium Phosphate Tribasic-12H20] | 36 atm |
| OC[C@H]1O[C@@](CO)(O[C@H]2O[C@H](CO)[C@@H](O)[C@H](O)[C@H]2O)[C@@H](O)[C@@H]1O [Sucrose] | 150 atm |
